The source of these data is US8114442B2, “Transdermal pharmaceutical delivery compositions” (Queen Mary & Westfield College, priority 2008, dated 2012).

The conditions of series [1]: healthy 70 kg-adult; cited from earlier work.
A short description of series [2]: Pilot studies of local anaesthesia by pin-prick and thermal sensitivity testing. Conditions: applied directly to the skin without NO-generating gel; within 20 minutes. Type of series: in vivo, human. From the text: The anaesthetic used in these initial studies was xylocalne as it was readily available in a pharmaceutical form for mixing.

The structures appear in SMILES notation.

As for `COC(=O)[C@H]1[C@@H](OC(=O)c2ccccc2)C[C@@H]2CC[C@H]1N2C` [cocaine], in series [1], the “generally accepted safe dosage for topical anaesthesia” value (“generally accepted safe dosage” below) is given as 200 mg.
Regarding `CCN(CC)CC(=O)Nc1c(C)cccc1C` [lidocaine], the “generally accepted safe dosage” value in series [1] is 750 mg.
For the compound `CCCCNc1ccc(C(=O)OCCN(C)C)cc1` [tetracaine], the “generally accepted safe dosage” value in series [1] is listed as 50 mg.
Turning to `CCN(CC)CC(=O)Nc1c(C)cccc1C` [xylocalne], the level of anaesthesia entry in series [2] is reported as “failed to produce any discernible level of anaesthesia”.
